Consider 43 compounds from US12065416B2, “cGAS antagonist compounds” (IMMUNESENSOR THERAPEUTICS, INC., priority 2016, dated 2024).

For test [1], the target named is T1, recombinant cGAS (aa147-522) (Homo sapiens, UniProt Q8N884).
T1 construct: recombinant cGAS (aa147-522); His6-SUMO (N, cleaved yes); made in house; host or cells: E. coli BL21/pLys
Put plainly: In vitro assay for inhibition of cGAS activity (ATP consumption, Kinase Glo). The test is classed as biochemical. The conditions noted are these: 37° C. 20 minutes, read-out: Activity (Inhibition of cGAS enzyme activity in vitro, IC50). The method in brief:
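Human cGAS (aa147-522) at 1.5 ng/μL incubated with serially diluted compound at 37° C for 20 min; remaining ATP read by Kinase Glo luminescence. IC50 from percent ATP consumption plotted against log compound concentration.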
A general note: In Kinase-Glo more light means more ATP remaining.

The subject of test [2] is cGAS activity in THP1 cells. The test can be described thus: Cellular assay: ISRE-Gaussia luciferase reporter THP1 cells transfected with ISD (Interferon Stimulatory DNA). The test is classed as cell-based. Conditions: Homo sapiens, THP-1; ISRE-Gaussia luciferase reporter THP1 cells transfected with 2 μg/mL ISD, 16 hours; read-out: THP1-ISD (Inhibition of cGAS activity in THP1 cells, IC50). Here is the method:
(§1) A reporter THP1 cell line harboring a gene encoding Gaussia Luciferase under the control of 5 tandem repeats of interferon-stimulated response elements (ISRE) was used to test inhibition of cGAS activity by synthetic compounds in human cells. These cells were plated on 96-well plates at 0.3×10^6/well and incubated with various concentrations of compounds or DMSO for 5 min, followed by transfection of 2 μg/mL of ISD (Interferon Stimulatory DNA, a 45 bp DNA oligo) or mock transfected using lipofectamine 2000 (Life Technology) method, according to manufacturer's instructions. 16 hours later, 15 μL of the media from each well is transferred to a new plate, 50 μL of solution containing 50 mM Hepes-NaOH, 50 mM NaCl, 10 mM EDTA, 1 μM of coeleanterazine was added to each well and luminescence was measured immediately. Fold increase in luminescence compared to mock transfection is plotted against concentrations of each compound, and IC50 is calculated using Graphpad. To evaluate the specificity of a compound, the same procedure was performed except that cells were transfected with 2 μg/mL poly(I:C) or infected with Sendai Virus (SeV) at 50 Unit/mL, which are known to activate the RIG-I-MAVS pathway. A specific inhibitory compound should inhibit interferon induction by DNA but have minimal effect on poly(I:C) or Sendai virus induced interferon reporter gene expression.
(In general: Reporter assays use an easily measured gene product as a stand-in for the process of interest.)

For test [3], the system named is RIG-I-MAVS pathway. Put plainly: Specificity assay: ISRE reporter THP1 cells infected with Sendai Virus (SeV). The test is classed as cell-based. Conditions: Homo sapiens, THP-1; ISRE-Gaussia luciferase reporter THP1 cells infected with Sendai Virus (SeV) at 50 Unit/mL. As to the method:
as §1

T1 sequence (Q8N884 147-522): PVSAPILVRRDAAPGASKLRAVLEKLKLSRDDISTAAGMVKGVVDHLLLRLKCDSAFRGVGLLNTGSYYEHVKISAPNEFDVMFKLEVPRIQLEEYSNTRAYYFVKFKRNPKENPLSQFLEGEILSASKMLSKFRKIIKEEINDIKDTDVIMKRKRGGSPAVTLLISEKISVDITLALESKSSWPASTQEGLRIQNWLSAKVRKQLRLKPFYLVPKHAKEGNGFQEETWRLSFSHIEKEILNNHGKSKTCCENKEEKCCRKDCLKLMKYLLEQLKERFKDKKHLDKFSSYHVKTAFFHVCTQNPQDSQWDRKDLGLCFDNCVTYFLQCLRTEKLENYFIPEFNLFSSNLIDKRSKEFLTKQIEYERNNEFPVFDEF

A word on the IC50: it is the point on the concentration scale where inhibition reaches its midpoint. Turning to `COCCNc1ncc(COc2cc(/C=C3\SC(=O)N(C)C3=O)c(Br)c(F)c2O)cn1` [Ex153], the IC50 in test [1] was not above 0.5 µM; in test [2], 2.5 to 10 µM; in test [3], not below 10 µM.
Regarding `COc1cc(/C=C2\SC(=O)N(C)C2=O)c(Br)cc1O` [Ex28], the IC50 is not above 0.5 µM in test [1], not above 2.5 µM in test [2] and not below 10 µM in test [3].
The like results for `CNc1ncc(COc2cc(/C=C3\SC(=O)N(C)C3=O)c(Br)cc2O)cn1` [Ex148] were, in that order, not above 0.5 µM, not above 2.5 µM and not below 10 µM.
With `CN1C(=O)S/C(=C\c2cc(OCc3ncc(N)cn3)c(O)cc2Br)C1=O` [Ex139], the figures for the 50% inhibitory concentration (IC50) in test [1], in test [2] and in test [3] were 0.5 to 10 µM, 2.5 to 10 µM and not below 10 µM, respectively.
For the compound `CN1C(=O)S/C(=C\c2cc(O/C=C/c3cnc(N)nc3)c(O)c(F)c2Br)C1=O` [ExB2], the IC50 in test [1] is not above 0.5 µM; in test [2] it was not above 2.5 µM; in test [3] it was not below 10 µM.
Take `CCC(Oc1cc(/C=C2\SC(=O)N(C)C2=O)c(Br)c(F)c1O)c1cnc(N)nc1` (stereo not drawn) [ExB44]: the IC50 in test [1] is not above 0.5 µM; in test [2] it was 2.5 to 10 µM; in test [3], not below 10 µM.
On to `C[S+]([O-])c1ncc(COc2cc(/C=C3\Sc4ncccc4C3=O)c(Br)c(F)c2O)cn1` (stereo not drawn) [ExA15], for which the IC50 in test [1] was 0.5 to 10 µM; in test [2], 2.5 to 10 µM; in test [3] it was not below 10 µM.
For `CN1C(=O)S/C(=C\c2cc3c(Cc4cnc(N)nc4)c[nH]c3c(F)c2Br)C1=O` [ExB43], the IC50 in test [1] is not above 0.5 µM; in test [2] it was not below 10 µM; in test [3] it was not below 10 µM.
Regarding `CC(Oc1cc(/C=C2\Sc3ncccc3C2=O)c(Br)cc1O)c1cnc(N)nc1` (stereo not drawn) [Ex122], the IC50 in test [1] was not above 0.5 µM; in test [2], not above 2.5 µM; in test [3], not below 10 µM.
In the case of `CN1C(=O)S/C(=C\c2cc(OCc3cnc4ccccc4c3)c(O)cc2Br)C1=O` [Ex177], the values for the IC50 in test [1], in test [2] and in test [3] were 0.5 to 10 µM, 2.5 to 10 µM and not below 10 µM, respectively.
On to `[2H]C([2H])(Oc1cc(/C=C2\SC(=O)N(C)C2=O)c(Br)cc1O)c1cnc(N)nc1` [ExB35], for which the results for the IC50 in test [1], in test [2] and in test [3] were not above 0.5 µM, not above 2.5 µM and not below 10 µM, respectively.
Turning to `CC(Oc1cc(/C=C2\SC(=O)N(C)C2=O)c(Br)cc1O)c1cncnc1N` (stereo not drawn) [Ex80], the IC50 in test [1] was not above 0.5 µM; in test [2], 2.5 to 10 µM; in test [3], not below 10 µM.
With `CN1C(=O)S/C(=C\c2cc(OCc3cnc(N)nc3C3CC3)c(O)cc2Br)C1=O` [Ex171], the figures for the IC50 in test [1], in test [2] and in test [3] were not above 0.5 µM, 2.5 to 10 µM and not below 10 µM, respectively.
Take `O=C1/C(=C/c2cc(OCc3cnc(NCCO)nc3)c(O)cc2Br)Sc2ncccc21` [Ex196]: the IC50 was not above 0.5 µM in test [1], not above 2.5 µM in test [2] and not below 10 µM in test [3].
Taken in the same sequence, the figures for `CN1C(=O)S/C(=C\c2cc(Oc3ccc(N)nc3)c(O)cc2Br)C1=O` [Ex234] were not below 10 µM, 2.5 to 10 µM and not below 10 µM.
As for `O=C1/C(=C/c2cc(CC(F)(F)F)c(O)cc2Br)Sc2ncccc21` [ExB21], the IC50 in test [1] is not above 0.5 µM; in test [2], 2.5 to 10 µM; in test [3], not below 10 µM.
In the case of `CN1C(=O)S/C(=C\c2cc(OC(F)(F)F)c(O)cc2Br)C1=O` [Ex57], the IC50 in test [1] is 0.5 to 10 µM; in test [2] it was not above 2.5 µM; in test [3] it was 2.5 to 10 µM.
Take `CN1C(=O)S/C(=C\c2cc(OCc3cnc(N)nc3)c(O)cc2Br)C1=O` [Ex147]: the IC50 was not above 0.5 µM in test [1], not above 2.5 µM in test [2] and not below 10 µM in test [3].
Take `Nc1ncc(COc2cc(/C=C3\Sc4ncccc4C3=O)c(Br)c(F)c2O)cn1` [Ex123]: the IC50 in test [1] was not above 0.5 µM; in test [2], not above 2.5 µM; in test [3] it was not below 10 µM.
`O=C1/C(=C/c2cc(OCc3cnc(NCc4ccncc4)nc3)c(O)cc2Br)Sc2ncccc21` [Ex200]: the IC50 was not above 0.5 µM in test [1], not above 2.5 µM in test [2] and not below 10 µM in test [3].
Take `CNc1ncc(COc2cc(/C=C3\Sc4ncccc4C3=O)c(Br)c(F)c2O)cn1` [ExA1]: the figures for the IC50 in test [1], in test [2] and in test [3] were not above 0.5 µM, 2.5 to 10 µM and not below 10 µM, respectively.
In the case of `CN1C(=O)S/C(=C\c2cc(OCc3cnc(Cl)nc3)c(O)cc2Br)C1=O` [Ex93], the IC50 is not above 0.5 µM in test [1], 2.5 to 10 µM in test [2] and not below 10 µM in test [3].
With `CC(Oc1cc(/C=C2\SC(=O)N(C)C2=O)c(Br)c(F)c1O)c1cnc(N)nc1C(F)(F)F` (stereo not drawn) [ExA7], the IC50 was not above 0.5 µM in test [1], 2.5 to 10 µM in test [2] and not below 10 µM in test [3].
On to `CN1C(=O)S/C(=C\c2cc(OCc3cn(-c4ccncc4)nn3)c(O)cc2Br)C1=O` [Ex233], for which the values for the IC50 in test [1], in test [2] and in test [3] were not below 10 µM, 2.5 to 10 µM and not below 10 µM, respectively.
For the compound `CN1C(=O)S/C(=C\c2cc(OCc3cncnc3N)c(O)cc2Br)C1=O` [Ex141], the IC50 in test [1] was not above 0.5 µM; in test [2], not above 2.5 µM; in test [3], not below 10 µM.
With `CN1C(=O)S/C(=C\c2cc(OCc3cn[nH]c3)c(O)cc2Br)C1=O` [Ex92], the values for the IC50 in test [1], in test [2] and in test [3] were not above 0.5 µM, not above 2.5 µM and not below 10 µM, respectively.
On to `CN1C(=O)S/C(=C\c2cc3c(-c4cnc(N)nc4)c[nH]c3c(F)c2Br)C1=O` [ExB40], for which the IC50 in test [1] is not above 0.5 µM; in test [2], 2.5 to 10 µM; in test [3] it was not below 10 µM.
`CNc1ncc(COc2cc(/C=C3\Sc4ncccc4C3=O)c(Br)cc2O)cn1` [Ex195]: the IC50 is not above 0.5 µM in test [1], 2.5 to 10 µM in test [2] and not below 10 µM in test [3].
As to `CC(C)n1ccc(COc2cc(/C=C3\SC(=O)N(C)C3=O)c(Br)cc2O)cc1=O` [Ex135], the IC50 in test [1] is 0.5 to 10 µM; in test [2], 2.5 to 10 µM; in test [3] it was not below 10 µM.
In the case of `COc1cc(/C=C2\Sc3ncccc3C2=O)c(Br)c(F)c1O` [Ex75], the IC50 was not above 0.5 µM in test [1], 2.5 to 10 µM in test [2] and not below 10 µM in test [3].
Consider `CN1C(=O)S/C(=C\c2cc(OCc3cnc(NC4CC4)nc3)c(O)cc2Br)C1=O` [Ex149], for which the IC50 is 0.5 to 10 µM in test [1], not above 2.5 µM in test [2] and not below 10 µM in test [3].
For the compound `CN1C(=O)S/C(=C\c2cc(OCCc3cnc(N)nc3)c(O)c(F)c2Br)C1=O` [ExB3], the IC50 was not above 0.5 µM in test [1], not above 2.5 µM in test [2] and not below 10 µM in test [3].
For `Cc1nc(N)ncc1COc1cc(/C=C2\SC(=O)N(C)C2=O)c(Br)cc1O` [Ex170], the IC50 in test [1] was not above 0.5 µM; in test [2] it was not above 2.5 µM; in test [3] it was not below 10 µM.
In the case of `CN1C(=O)S/C(=C\c2cc(OCc3cnc[nH]3)c(O)cc2Br)C1=O` [Ex137], the values for the IC50 in test [1], in test [2] and in test [3] were 0.5 to 10 µM, 2.5 to 10 µM and not below 10 µM, respectively.
The like results for `Cc1nc(N)ncc1COc1cc(/C=C2\SC(=O)N(C)C2=O)c(Br)c(F)c1O` [Ex108] were, in that order, not above 0.5 µM, not above 2.5 µM and not below 10 µM.
Regarding `CN1C(=O)S/C(=C\c2cc(OCc3cnc(N)nc3)c(O)c(F)c2Br)C1=O` [Ex81], the IC50 is not above 0.5 µM in test [1], not above 2.5 µM in test [2] and not below 10 µM in test [3].
With `C[S+]([O-])c1ncc(COc2cc(/C=C3\Sc4ncccc4C3=O)c(Br)cc2O)cn1` (stereo not drawn) [Ex216], the IC50 in test [1] is not above 0.5 µM; in test [2] it was not above 2.5 µM; in test [3], 2.5 to 10 µM.
Regarding `CN1C(=O)S/C(=C\c2cc(OCc3cnc(N4CCNCC4)nc3)c(O)cc2Br)C1=O` [Ex165], the results for the IC50 in test [1], in test [2] and in test [3] were not above 0.5 µM, 2.5 to 10 µM and not below 10 µM, respectively.
Taken in the same sequence, the figures for `CN1C(=O)S/C(=C\c2cc(OCc3cnc(NCc4ccncc4)nc3)c(O)cc2Br)C1=O` [Ex157] were not above 0.5 µM, 2.5 to 10 µM and not below 10 µM.
Taken in the same sequence, the figures for `O=C1/C(=C/c2cc(OCc3cnc(NCc4cccnc4)nc3)c(O)c(F)c2Br)Sc2ncccc21` [ExA3] were not above 0.5 µM, 2.5 to 10 µM and not below 10 µM.
As to `CN1C(=O)S/C(=C\c2cc(OCc3cnc(NN)nc3)c(O)cc2Br)C1=O` [Ex184], the IC50 in test [1] is not above 0.5 µM; in test [2], not above 2.5 µM; in test [3] it was not below 10 µM.
As to `O=C1/C(=C/c2cc(OC(F)(F)F)c(O)cc2Br)Sc2ncccc21` [Ex70], the IC50 in test [1] is 0.5 to 10 µM; in test [2], 2.5 to 10 µM; in test [3] it was not below 10 µM.
On to `Nc1ncncc1COc1cc(/C=C2\Sc3ncccc3C2=O)c(Br)cc1O` [Ex73], for which the IC50 is not above 0.5 µM in test [1], 2.5 to 10 µM in test [2] and not below 10 µM in test [3].
